Data from BindingDB's records for doi:10.1021/jm00073a015 (Institute, 1993).

Tests used:
[1] = Binding affinity against kappa opioid receptor from calf frontal cortex.
[2] = Binding affinity against delta opioid receptor from calf frontal cortex.
Mu-type opioid receptor = Mu-type opioid receptor (Bos taurus, UniProt P79350); test: ChEBML_136067
Text: Binding affinity against mu opioid receptor from calf frontal cortex.

Sequence of Mu-type opioid receptor (P79350 whole entry): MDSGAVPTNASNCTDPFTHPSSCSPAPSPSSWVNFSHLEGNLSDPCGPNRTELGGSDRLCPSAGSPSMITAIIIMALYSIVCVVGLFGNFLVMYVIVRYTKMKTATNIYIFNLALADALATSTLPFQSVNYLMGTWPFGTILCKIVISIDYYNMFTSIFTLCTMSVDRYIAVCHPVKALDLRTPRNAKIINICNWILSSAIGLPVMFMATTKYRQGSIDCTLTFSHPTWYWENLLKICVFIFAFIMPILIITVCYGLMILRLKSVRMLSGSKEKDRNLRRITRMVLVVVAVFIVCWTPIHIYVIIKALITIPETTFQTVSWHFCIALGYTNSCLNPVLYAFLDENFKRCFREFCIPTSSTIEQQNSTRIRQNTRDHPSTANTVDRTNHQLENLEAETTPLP

SMILES | IC50 [1] [nM] | IC50 [2] [nM] | IC50 (Mu-type opioid receptor) [nM]
CN1CC[C@]23c4c5ccc(O)c4O[C@H]2C(=O)CC[C@@]3(NC(=O)/C=C/c2ccc([N+](=O)[O-])cc2)[C@H]1C5 | 6.6 | 3.5 | –
C[C@@]12Oc3c(O)ccc4c3C13CCN(CC1CC1)C(C4)[C@]3(NC(=O)CCc1ccc([N+](=O)[O-])cc1)CCC2=O (stereo partly drawn) [1N-[4-cyclopropylmethyl-10-hydroxy-13-methyl-14-oxo-(13R,17S)-12-oxa-4-azapentacyclo[9.6.1.01,13.05,17.07,18]octadeca-7(18),8,10-trien-17-yl]-3-(4-nitrophenyl)propanamide] | 162 | – | –
C[C@@]12Oc3c(O)ccc4c3C13CCN(CC1CC1)C(C4)[C@]3(NC(=O)/C=C/c1ccc([N+](=O)[O-])cc1)CCC2=O (stereo partly drawn) [1N-[4-cyclopropylmethyl-10-hydroxy-13-methyl-14-oxo-(13R,17S)-12-oxa-4-azapentacyclo[9.6.1.01,13.05,17.07,18]octadeca-7(18),8,10-trien-17-yl]-4-(4-nitrophenyl)-(Z)-2-butenamide] | 126 | 11 | –
O=C(C=Cc1ccc([N+](=O)[O-])cc1)N[C@@]12C=CC(=O)[C@@H]3Oc4c(O)ccc5c4C31CCN(CC1CC1)C2C5 (stereo partly drawn) [1N-[4-cyclopropylmethyl-10-hydroxy-14-oxo-(13R,17S)-12-oxa-4-azapentacyclo[9.6.1.01,13.05,17.07,18]octadeca-7(18),8,10,15-tetraen-17-yl]-4-(4-nitrophenyl)-(Z)-2-butenamide] | 11 | 106 | –
O=C(/C=C/c1ccc([N+](=O)[O-])cc1)N[C@@]12CCC(=O)[C@@H]3Oc4c(O)ccc5c4[C@@]31CCN(CC1CC1)[C@@H]2C5 [1N-[4-cyclopropylmethyl-10-hydroxy-14-oxo-(13R,17S)-12-oxa-4-azapentacyclo[9.6.1.01,13.05,17.07,18]octadeca-7(18),8,10-trien-17-yl]-4-(4-nitrophenyl)-(Z)-2-butenamide] | 12 | 21 | –
COc1ccc2c3c1O[C@H]1C(=O)C=C[C@@]4(NC(=O)C=Cc5ccc([N+](=O)[O-])cc5)C(C2)N(CC2CC2)CCC314 (stereo partly drawn) [1N-[4-cyclopropylmethyl-10-methoxy-14-oxo-(13R,17S)-12-oxa-4-azapentacyclo[9.6.1.01,13.05,17.07,18]octadeca-7(18),8,10,15-tetraen-17-yl]-4-(4-nitrophenyl)-(Z)-2-butenamide] | 5 | 54 | 1.5
CN1CCC23c4c5ccc(O)c4O[C@@]2(C)C(=O)CC[C@@]3(NC(=O)/C=C/c2ccc([N+](=O)[O-])cc2)C1C5 (stereo partly drawn) [1N-[10-hydroxy-4,13-dimethyl-14-oxo-(13R,17S)-12-oxa-4-azapentacyclo[9.6.1.01,13.05,17.07,18]octadeca-7(18),8,10-trien-17-yl]-4-(4-nitrophenyl)-(Z)-2-butenamide] | 116 | 51 | –
COc1ccc2c3c1O[C@H]1C(=O)C=C[C@@]4(NC(=O)C=Cc5ccc([N+](=O)[O-])cc5)C(C2)N(C)CCC314 (stereo partly drawn) [1N-[10-methoxy-4-methyl-14-oxo-(13R,17S)-12-oxa-4-azapentacyclo[9.6.1.01,13.05,17.07,18]octadeca-7(18),8,10,15-tetraen-17-yl]-4-(4-nitrophenyl)-(Z)-2-butenamide] | 68 | 46 | –
